Experimental data as given in patent US20120046331A1, “Antifungal Agents and Uses Thereof” (priority 2010, published 2012).
Values after ≈ are worked out from the molar mass of the structure shown. Values joined by “and” are separate entries in the source; they are usually repeats but may differ in a detail not shown here. Equal entries are not always repeated. Where two headings read alike, the source gives them in different places. Marks after values point to notes of the source that are not given here.

Tests used:
[1] = tested on: T. rubrum; experiment: MIC testing, modified CLSI M38-A2 for dermatophytes (Example 2); type: cell-based, Trichophyton rubrum; settings: for MIC50: lowest concentration to inhibit 50% of the strains tested, n = 20
[2] = tested on: clinical isolates of Zygomycetes and molds; experiment: In vitro synergy with azoles; type: cell-based; settings: majority of clinical isolates
[3] = tested on: E. floccosum; experiment: Single agent MIC, broth microdilution adapted from CLSI M38-A (Example 1); type: cell-based; settings: Epidermophyton floccosum, range over clinical isolates, N=9, read-out: Cpd 8 MIC
Excerpt: (§1) A minimum inhibitory concentration (MICx) of a compound such as a HDAC inhibitor or an antifungal agent (or both) is the concentration that reduces growth of a fungus by X %, compared to the growth of the fungus in the absence of the compound.
(§2) This example describes the in vitro activity of combinations of compounds according to the present invention and antifungal agents against a collection of dermatophytic fungal pathogens. Antifungal susceptibility testing was adapted from the CLSI M38-A broth microdilution method for dermatophytes (NCCLS-M38-A2 2008). Combination testing was performed by checkerboard method (with compound 8 in combination with fluconazole, itraconazole or terbinafine). A total of 30 isolates of 5 different fungal species were tested in the combination test: 6 isolates each of Trichophyton tonsurans, Trichophyton rubrum, Epidermophyton floccosum, Trichophyton mentagrophytes and Microsporum canis. Clinical isolates were obtained by the Laboratory of Dr. M. Ghannoum at Case Western University.

[4] = tested on: T. tonsurans; experiment: as above; type: cell-based; settings: Trichophyton tonsurans, range over clinical isolates, N=8, read-out: Cpd 8 MIC
Excerpt: as §1, §2

[5] = tested on: M. canis; experiment: as above; type: cell-based; settings: Microsporum canis, range over clinical isolates, N=7, read-out: Cpd 8 MIC
Excerpt: as §1, §2

[6] = tested on: T. mentagrophytes; experiment: as above; type: cell-based; settings: Trichophyton mentagrophytes, range over clinical isolates, N=10, read-out: Cpd 8 MIC
Excerpt: as §1, §2

[7] = tested on: T. rubrum; experiment: as above; type: cell-based; settings: Trichophyton rubrum, range over clinical isolates, N=10, read-out: Cpd 8 MIC
Excerpt: as §1, §2

[8] = tested on: T. tonsurans; experiment: Checkerboard combination testing of compound 8 with antifungals, FIC (Example 1); type: cell-based, Trichophyton tonsurans; settings: for Additivity # isolates / Additivity isolates (%): 0.5≦FIC≦1.0; for No Interaction # isolates: 1.0<FIC≦4.0; for Synergy # isolates / Synergy isolates (%): FIC<0.5
Method: as §2
(§3) Synergy was assessed using the fractional inhibitory concentration (FIC), an interaction coefficient, with the following definitions:
(§4) The fold reduction of the itraconazole minimum inhibitory concentration (MIC) was also evaluated.

[9] = tested on: T. rubrum, T. mentagrophytes and T. tonsurans strains; experiment: Checkerboard microdilution Compound 8 + fluconazole, all strains (Example 2); type: cell-based; settings: Compound 8 in combination with fluconazole
Method: (§5) MIC testing was performed according to the modification of the CLSI M38-A2 standard for dermatophytes developed at the Center (CLSI. Reference Method for Broth Dilution Antifungal Susceptibility Testing of Filamentous Fungi; Approved Standard-Second Edition. CLSI document M38-A2 [ISBN 1-56238-668-9]. CLSI, 940 West Valley Road, Suite 1400, Wayne, Pa. 19087-1898 USA, 2008; Ghannoum M A, et al. Intra- and Interlaboratory Study of a Method for Testing the Antifungal Susceptibilities of Dermatophytes. 2004 J Clin Microbiol 42:(7): 2977-2979). Compound 8 and fluconazole were tested in combination using a checkerboard microdilution method. The interaction between Compound 8 and fluconazole was determined by FIC Index, or Fractional Inhibitory Concentration Index, which assigns a numerical value to the interaction of the two antifungals.

[10] = tested on: M. canis; experiment: Checkerboard combination testing of compound 8 with antifungals, FIC (Example 1); type: cell-based, Microsporum canis
Method: as §2
(§6) Synergy was assessed using the fractional inhibitory concentration (FIC), an interaction coefficient, with the following definitions: […]

[11] = tested on: T. rubrum; experiment: as above; type: cell-based, Trichophyton rubrum; settings: n=6 isolates; for Additivity # isolates / Additivity isolates (%): 0.5≦FIC≦1.0; for No Interaction # isolates: 1.0<FIC≦4.0; for Synergy # isolates / Synergy isolates (%): FIC<0.5
Method: as §2, §6

[12] = tested on: T. tonsurans; experiment: Checkerboard microdilution Compound 8 + fluconazole, FIC Index (Example 2); type: cell-based; settings: Compound 8 in combination with fluconazole, one value per strain (MRL #)
Method: as §5

[13] = tested on: T. mentagrophytes; experiment: as above; type: cell-based; settings: Compound 8 in combination with fluconazole, one value per strain (MRL #)
Method: as §5

[14] = tested on: T. mentagrophytes; experiment: Checkerboard combination testing of compound 8 with antifungals, FIC (Example 1); type: cell-based, Trichophyton mentagrophytes; settings: n=6 isolates; for Additivity # isolates / Additivity isolates (%): 0.5≦FIC≦1.0; for No Interaction # isolates: 1.0<FIC≦4.0; for Synergy # isolates / Synergy isolates (%): FIC<0.5
Method: as §2, §6

[15] = tested on: panel of clinical isolates of 5 common dermatophytic fungi; experiment: Checkerboard combination testing, whole panel (Example 1); type: cell-based
Method: as §2, §6

[16] = tested on: T. rubrum; experiment: Checkerboard microdilution Compound 8 + fluconazole, FIC Index (Example 2); type: cell-based, Trichophyton rubrum; settings: Compound 8 in combination with fluconazole, one value per strain (MRL #)
Method: This example describes the in vitro activity of combinations of compounds according to the present invention and antifungal agents against clinical isolates of Trichophyton rubrum. Twenty clinical isolates Trichophyton rubrum, including 9 strains with elevated terbinafine MICs, taken from the culture collection of the Center for Medical Mycology, were tested.
as §5

[17] = tested on: E. floccosum; experiment: Checkerboard combination testing of compound 8 with antifungals, FIC (Example 1); type: cell-based, Epidermophyton floccosum; settings: for Additivity # isolates / Additivity isolates (%): 0.5≦FIC≦1.0
Method: as §2, §3, §4

[18] = tested on: T. tonsurans; experiment: MIC testing, modified CLSI M38-A2 for dermatophytes (Example 2); type: cell-based
Method: as §5

[19] = tested on: T. mentagrophytes; experiment: as above; type: cell-based
Method: as §5

[20] = tested on: M. canis; experiment: Checkerboard combination testing of compound 8 with antifungals, FIC (Example 1); type: cell-based, Microsporum canis; settings: Compound 8 in combination with itraconazole, N=5 isolates
[21] = tested on: broad panel of dermatophytic clinical isolates; experiment: Single agent MIC, whole panel (Example 1); type: cell-based; settings: range over all species and clinical isolates tested
Excerpt: as §1, §2

[22] = Compound 8 in combination with fluconazole, n=6 isolates
[23] = Compound 8 in combination with itraconazole, N=5 isolates
[24] = one value per clinical isolate (Strain # 1-6)
[25] = Compound 8 in combination with fluconazole, 0.5≦FIC≦1.0, n=6 isolates
[26] = Compound 8 in combination with fluconazole, 1.0<FIC≦4.0, n=6 isolates
[27] = Compound 8 in combination with fluconazole, FIC<0.5, n=6 isolates
[28] = Compound 8 in combination with fluconazole
[29] = Compound 8 in combination with itraconazole
[30] = Compound 8 in combination with itraconazole, n=6 isolates
[31] = Compound 8 in combination with itraconazole, FIC<0.5, n=6 isolates
[32] = Trichophyton tonsurans, n = 5 strains
[33] = Trichophyton mentagrophytes, n = 5 strains

- MIC50 ([1]; Trichophyton rubrum, read-out: MIC50): 1 µg/mL (≈ 3.53 µM)
- MIC90 ([1]; Trichophyton rubrum, n = 20 strains): 4 µg/mL (≈ 14.1 µM)
- MIC50 [1]: 1 µg/mL (≈ 3.53 µM)
- MIC Range ([1]; n = 20 strains): 0.5 to 4.0 µg/mL
- MIC [3]: 0.5 to 1 µg/mL
- MIC [4]: 0.02 to 0.25 µg/mL
- MIC [5]: 0.12 to 2 µg/mL
- MIC [6]: 0.12 to 2 µg/mL
- MIC [7]: 0.06 to 0.25 µg/mL
- Fold Reduction of Itraconazole MIC by Cpd 8 [8, 24]: 2x and 4x
- Fold Reduction of Itraconazole MIC by Cpd 8 [17, 24]: 8x and 4x and 7.5x
- MIC ([18]; Trichophyton tonsurans, drug alone, one value per strain (MRL # in c0), read-out: Individual MIC): 0.12 µg/mL
- MIC50 [18, 32]: 0.06 µg/mL
- MIC90 [18, 32]: 0.06 µg/mL
- MIC Range ([18]; n = 5 strains): 0.06 to 0.12 µg/mL
- MIC ([19]; Trichophyton mentagrophytes, drug alone, one value per strain (MRL # in c0), read-out: Individual MIC): 1 µg/mL
- MIC50 [19, 33]: 1 µg/mL
- MIC90 [19, 33]: 1 µg/mL
- MIC Range ([19]; n = 5 strains): 1.0 µg/mL
- MIC [21]: 0.02 to 2 µg/mL
Structure (SMILES): O=C(Cc1ccc(CCCCc2ccccc2)cc1)NO [Compound 8]
- Compound 8 MIC compared with the corresponding terbinafine MIC ([1]; nine strains with a terbinafine MIC≧4.0 μg/ml): lower than the corresponding terbinafine MIC for eight of nine strains
- In vitro interaction with azoles [2]: synergy
- Additivity # isolates [8, 22]: 1
- Additivity isolates (%) [8, 22]: (17%)
- No Interaction # isolates [8, 22]: 0
- Synergy # isolates [8, 22]: 5
- Synergy isolates (%) [8, 22]: (83%)
- Additivity # isolates [8, 23]: 4
- Additivity isolates (%) [8, 23]: (80%)*
- No Interaction # isolates [8, 23]: 0
- Synergy # isolates [8, 23]: 1
- Synergy isolates (%) [8, 23]: (20%)*
- Antagonism [9]: No antagonism was demonstrated
- Synergism, % of the strains [9]: 23%
- Additivity # isolates [10, 25]: 4
- Additivity isolates (%) [10, 25]: (67%)
- No Interaction # isolates [10, 26]: 1
- No Interaction isolates (%) [10, 26]: (17%)
- Synergy # isolates [10, 27]: 1
- Synergy isolates (%) [10, 27]: (17%)
- No Interaction # isolates ([10]; Compound 8 in combination with itraconazole, 1.0<FIC≦4.0, N=5 isolates): 4
- Additivity # isolates [11, 28]: 4
- Additivity isolates (%) [11, 28]: (67%)
- No Interaction # isolates [11, 28]: 0
- Synergy # isolates [11, 28]: 2
- Synergy isolates (%) [11, 28]: (33%)
- Additivity # isolates [11, 29]: 2
- Additivity isolates (%) [11, 29]: (33%)
- No Interaction # isolates [11, 29]: 0
- Synergy # isolates [11, 29]: 4
- Synergy isolates (%) [11, 29]: (67%)
- Interpretation from ODDS ([12]; strain MRL 10152): Additive
- Interpretation from ODDS ([12]; strain MRL 10327): No interaction
- Interpretation from ODDS ([12]; strain MRL 10328): Synergistic
- Interpretation from ODDS ([13]; strain MRL 11256): Synergistic
- Interpretation from ODDS ([13]; strain MRL 12511): Additive
- Interpretation from ODDS ([13]; strain MRL 12680): No interaction
- Additivity # isolates [14, 28]: 4
- Additivity isolates (%) [14, 28]: (67%)
- No Interaction # isolates [14, 28]: 0
- Synergy # isolates [14, 28]: 2
- Synergy isolates (%) [14, 28]: (33%)
- Additivity # isolates [14, 29]: 1
- Additivity isolates (%) [14, 29]: (17%)
- No Interaction # isolates [14, 29]: 0
- Synergy # isolates [14, 29]: 5
- Synergy isolates (%) [14, 29]: (83%)
- Synergy, % of the isolate combinations tested ([15]; Compound 8 with fluconazole, 30 isolate combinations): 33%
- Synergy, number of isolates ([15]; Compound 8 with fluconazole, of 30 isolate combinations tested): 10
- Synergy, % of the isolate combinations tested ([15]; Compound 8 with itraconazole, 28 isolate combinations): 54%
- Synergy, number of isolates ([15]; Compound 8 with itraconazole, of 28 isolate combinations tested): 15
- Antagonism ([15]; any of the Compound 8-azole combinations or clinical isolates): Antagonism was not observed
- Interpretation from ODDS ([16]; strain MRL 476): No interaction
- Interpretation from ODDS ([16]; strain MRL 477): Additive
- Interpretation from ODDS ([16]; strain MRL 670): Synergistic
- Interpretation from ODDS ([16]; strain MRL 9482): Addivtive
- Additivity # isolates [17, 22]: 4
- Additivity isolates (%) [17, 22]: (67%)
- No Interaction # isolates [17, 26]: 2
- No Interaction isolates (%) [17, 26]: (33%)
- Synergy # isolates [17, 27]: 0
- Additivity # isolates [17, 30]: 2
- Additivity isolates (%) [17, 30]: (33%)
- No Interaction # isolates ([17]; Compound 8 in combination with itraconazole, 1.0<FIC≦4.0, n=6 isolates): 0
- Synergy # isolates [17, 31]: 4
- Synergy isolates (%) [17, 31]: (67%)
- Antifungal activity as compared with fluconazole ([18]; all strains tested): more potent antifungal activity as compared with fluconazole
- Antifungal activity as compared with fluconazole ([19]; all strains tested): more potent antifungal activity as compared with fluconazole
- Additivity # isolates ([20]; 0.5≦FIC≦1.0): 0*
- No Interaction isolates (%) ([20]; 1.0<FIC≦4.0): (80%)*
- Synergy # isolates ([20]; FIC<0.5): 1
- Synergy isolates (%) ([20]; FIC<0.5): (20%)*
